Assays:
barnyard grass [1] = assay: Test Example 3: herbicidal effect by foliage application, Wagner pot (Table 18, symbol H); assay type: in vivo, barnyard grass (Echinochloa crus-galli)
Outline: (§1)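 Plants were sown in alluvial soil held under 0.1–0.5 cm standing water and grown 14 days in a greenhouse at 25–30 °C. An emulsifiable formulation, water-diluted to the set dose, was then sprayed onto the foliage, and effects were scored three weeks later using previously defined criteria.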

wild oat [2] = assay: Test Example 4: herbicidal effect by soil treatment (Table 19, symbol I); assay type: in vivo, wild oat (Avena fatua)
Outline: (§2)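 Scoring uses the grading scale of an earlier test, three weeks post-application. Treatment consists of spraying a diluted emulsion formulation across the surface of sterilized diluvial soil in which seeds are buried near 1.5 cm deep; boxes are kept in a greenhouse between 25° C. and 30° C.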

southern crabgrass [3] = assay: Test Example 5: herbicidal effect by foliage application, plastic box (Table 20, symbol F); assay type: in vivo, southern crabgrass (Digitaria ciliaris); settings: foliage application, three weeks after application
Outline: (§3)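 Post-emergence foliar test in sterilized diluvial soil. Compound applied as water-diluted emulsion at a predetermined rate to 14-day-old plants; evaluation at three weeks.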

barnyard grass [4] = assay: Test Example 4: herbicidal effect by soil treatment (Table 19, symbol H); assay type: in vivo, barnyard grass (Echinochloa crus-galli)
Outline: as §2

southern crabgrass [5] = assay: Test Example 4: herbicidal effect by soil treatment (Table 19, symbol F); assay type: in vivo, southern crabgrass (Digitaria ciliaris)
Outline: as §2

oval-leafed pondweed = assay: Test Example 1: herbicidal activity, application before weed generation under submerged conditions (Table 16, symbol C); assay type: in vivo, oval-leafed pondweed (Monochoria vaginalis)
Outline: (§4)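 Emulsion formulation, water-diluted to set dose, was put onto the flooded surface (4 cm depth, alluvial soil) the same day weeds were sown and 2.5-leaf rice transplanted. After 3 weeks at 25-30 °C under glass, each species was rated 0 (≤5% kill) to 5 (≥90% kill).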

green foxtail [6] = assay: Test Example 4: herbicidal effect by soil treatment (Table 19, symbol G); assay type: in vivo, green foxtail (Setaria viridis)
Outline: as §2

Japanese bulrush = assay: Test Example 1: herbicidal activity, application before weed generation under submerged conditions (Table 16, symbol B); assay type: in vivo, Japanese bulrush (Schoenoplectus juncoides)
Outline: as §4

redroot pigweed = assay: Test Example 4: herbicidal effect by soil treatment (Table 19, symbol N); assay type: in vivo, redroot pigweed (Amaranthus retroflexus)
Outline: as §2

Chinese sprangletop = assay: Test Example 3: herbicidal effect by foliage application, Wagner pot (Table 18, symbol D); assay type: in vivo, chinese sprangletop (Leptochloa chinensis)
Outline: as §1

late watergrass = assay: Test Example 1: herbicidal activity, application before weed generation under submerged conditions (Table 16, symbol A); assay type: in vivo, late watergrass (Echinochloa oryzicola)
Outline: as §4

velvetleaf [7] = assay: Test Example 4: herbicidal effect by soil treatment (Table 19, symbol M); assay type: in vivo, velvetleaf (Abutilon theophrasti)
Outline: as §2

blackgrass [8] = assay: Test Example 5: herbicidal effect by foliage application, plastic box (Table 20, symbol J); assay type: in vivo, blackgrass (Alopecurus myosuroides); settings: foliage application, three weeks after application
Outline: as §3

barnyard grass [9] = assay: Test Example 5: herbicidal effect by foliage application, plastic box (Table 20, symbol H); assay type: in vivo, barnyard grass (Echinochloa crus-galli); settings: foliage application, three weeks after application
Outline: as §3

green foxtail [10] = assay: Test Example 5: herbicidal effect by foliage application, plastic box (Table 20, symbol G); assay type: in vivo, green foxtail (Setaria viridis); settings: foliage application, three weeks after application
Outline: as §3

wild oat [11] = assay: Test Example 5: herbicidal effect by foliage application, plastic box (Table 20, symbol I); assay type: in vivo, wild oat (Avena fatua); settings: foliage application, three weeks after application
Outline: as §3

persian speedwell [12] = assay: Test Example 4: herbicidal effect by soil treatment (Table 19, symbol R); assay type: in vivo, Persian speedwell (Veronica persica)
Outline: as §2

blackgrass [13] = assay: Test Example 4: herbicidal effect by soil treatment (Table 19, symbol J); assay type: in vivo, blackgrass (Alopecurus myosuroides)
Outline: as §2

lambsquarters [14] = assay: Test Example 4: herbicidal effect by soil treatment (Table 19, symbol O); assay type: in vivo, lambsquarters (Chenopodium album)
Outline: as §2

lambsquarters [15] = assay: Test Example 5: herbicidal effect by foliage application, plastic box (Table 20, symbol O); assay type: in vivo, lambsquarters (Chenopodium album); settings: foliage application, three weeks after application
Outline: as §3

persian speedwell [16] = assay: Test Example 5: herbicidal effect by foliage application, plastic box (Table 20, symbol R); assay type: in vivo, Persian speedwell (Veronica persica); settings: foliage application, three weeks after application
Outline: as §3

Italian ryegrass [17] = assay: Test Example 5: herbicidal effect by foliage application, plastic box (Table 20, symbol K); assay type: in vivo, Italian ryegrass (Lolium multiflorum); settings: foliage application, three weeks after application
Outline: as §3

chickweed = assay: Test Example 4: herbicidal effect by soil treatment (Table 19, symbol P); assay type: in vivo, common chickweed (Stellaria media)
Outline: as §2

windgrass [18] = assay: Test Example 4: herbicidal effect by soil treatment (Table 19, symbol L); assay type: in vivo, windgrass (Apera spica-venti)
Outline: as §2

windgrass [19] = assay: Test Example 5: herbicidal effect by foliage application, plastic box (Table 20, symbol L); assay type: in vivo, windgrass (Apera spica-venti); settings: foliage application, three weeks after application
Outline: as §3

rice flat sedge = assay: Test Example 3: herbicidal effect by foliage application, Wagner pot (Table 18, symbol E); assay type: in vivo, rice flat sedge (Cyperus iria)
Outline: as §1

Italian ryegrass [20] = assay: Test Example 4: herbicidal effect by soil treatment (Table 19, symbol K); assay type: in vivo, Italian ryegrass (Lolium multiflorum)
Outline: as §2

velvetleaf [21] = assay: Test Example 5: herbicidal effect by foliage application, plastic box (Table 20, symbol M); assay type: in vivo, velvetleaf (Abutilon theophrasti); settings: foliage application, three weeks after application
Outline: as §3

[22] = amount of applied herbicide 344 g/ha
[23] = amount of applied herbicide 320 g/ha

Structure (SMILES): CCCC(=O)Oc1c(C)nn(C)c(=O)c1-c1c(-c2ccc(F)cc2OC)sc2cc(OC)c(Cl)cc12 [5-076]
- herbicidal effect on barnyard grass (H) (barnyard grass [1]; 344 g/ha): 5 (Herbicidal rate of 90% or more (almost completely withered))
- I: wild oat, herbicidal effect grade (wild oat [2]; [22]): 0 (Herbicidal rate of 5% or less (almost no effect))
- herbicidal effect on southern crabgrass (F) (southern crabgrass [3]; 344 g/ha): 1 (Herbicidal rate of 5% or more and less than 20%)
- H: barnyard grass, herbicidal effect grade (barnyard grass [4]; [22]): 1 (Herbicidal rate of 5% or more and less than 20%)
- F: southern crabgrass, herbicidal effect grade (southern crabgrass [5]; [22]): 3 (Herbicidal rate of 40% or more and less than 70%)
- Herbicidal effect, C: oval-leafed pondweed (oval-leafed pondweed; [22]): 1 (Herbicidal rate of 5% or more and less than 20%)
- G: green foxtail, herbicidal effect grade (green foxtail [6]; [22]): 3 (Herbicidal rate of 40% or more and less than 70%)
- Herbicidal effect, B: Japanese bulrush (Japanese bulrush; [22]): 0 (Herbicidal rate of 5% or less (almost no effect))
- N: redroot pigweed, herbicidal effect grade (redroot pigweed; [22]): 4 (Herbicidal rate of 70% or more and less than 90%)
- herbicidal effect on Chinese sprangletop (D) (Chinese sprangletop; 344 g/ha): 0 (Herbicidal rate of 5% or less (almost no effect))
- Herbicidal effect, A: late watergrass (late watergrass; [22]): 2 (Herbicidal rate of 20% or more and less than 40%)
- M: velvetleaf, herbicidal effect grade (velvetleaf [7]; [22]): 1 (Herbicidal rate of 5% or more and less than 20%)
- herbicidal effect on blackgrass (J) (blackgrass [8]; 344 g/ha): 1 (Herbicidal rate of 5% or more and less than 20%)
- herbicidal effect on barnyard grass (H) (barnyard grass [9]; 344 g/ha): 3 (Herbicidal rate of 40% or more and less than 70%)
- herbicidal effect on green foxtail (G) (green foxtail [10]; 344 g/ha): 4 (Herbicidal rate of 70% or more and less than 90%)
- herbicidal effect on wild oat (I) (wild oat [11]; 344 g/ha): 0 (Herbicidal rate of 5% or less (almost no effect))
- R: persian speedwell, herbicidal effect grade (persian speedwell [12]; [22]): 0 (Herbicidal rate of 5% or less (almost no effect))
- J: blackgrass, herbicidal effect grade (blackgrass [13]; [22]): 0 (Herbicidal rate of 5% or less (almost no effect))
- O: lambsquarters, herbicidal effect grade (lambsquarters [14]; [22]): 3 (Herbicidal rate of 40% or more and less than 70%)
- herbicidal effect on lambsquarters (O) (lambsquarters [15]; 344 g/ha): 4 (Herbicidal rate of 70% or more and less than 90%)
- herbicidal effect on persian speedwell (R) (persian speedwell [16]; 344 g/ha): 0 (Herbicidal rate of 5% or less (almost no effect))
- herbicidal effect on Italian ryegrass (K) (Italian ryegrass [17]; 344 g/ha): 0 (Herbicidal rate of 5% or less (almost no effect))
- P: chickweed, herbicidal effect grade (chickweed; [22]): 0 (Herbicidal rate of 5% or less (almost no effect))
- L: windgrass, herbicidal effect grade (windgrass [18]; [22]): 0 (Herbicidal rate of 5% or less (almost no effect))
- herbicidal effect on windgrass (L) (windgrass [19]; 344 g/ha): 3 (Herbicidal rate of 40% or more and less than 70%)
- herbicidal effect on rice flat sedge (E) (rice flat sedge; 344 g/ha): 0 (Herbicidal rate of 5% or less (almost no effect))
- K: Italian ryegrass, herbicidal effect grade (Italian ryegrass [20]; [22]): 0 (Herbicidal rate of 5% or less (almost no effect))
- herbicidal effect on velvetleaf (M) (velvetleaf [21]; 344 g/ha): 3 (Herbicidal rate of 40% or more and less than 70%)

Structure (SMILES): Cc1nn(C)c(=O)c(-c2c(-c3ccc(Cl)cc3)oc3ccc(F)cc23)c1O [9-016]
- Herbicidal effect on H (barnyard grass), foliage application (barnyard grass [1]; [23]): 5 (Herbicidal rate of 90% or more (almost completely withered))
- I: wild oat, herbicidal effect grade (wild oat [2]; [23]): 2 (Herbicidal rate of 20% or more and less than 40%)
- herbicidal effect on southern crabgrass (F) (southern crabgrass [3]; 320 g/ha): 4 (Herbicidal rate of 70% or more and less than 90%)
- H: barnyard grass, herbicidal effect grade (barnyard grass [4]; [23]): 4 (Herbicidal rate of 70% or more and less than 90%)
- F: southern crabgrass, herbicidal effect grade (southern crabgrass [5]; [23]): 3 (Herbicidal rate of 40% or more and less than 70%)
- Herbicidal effect, C: oval-leafed pondweed (oval-leafed pondweed; [23]): 0 (Herbicidal rate of 5% or less (almost no effect))
- G: green foxtail, herbicidal effect grade (green foxtail [6]; [23]): 4 (Herbicidal rate of 70% or more and less than 90%)
- Herbicidal effect, B: Japanese bulrush (Japanese bulrush; [23]): 0 (Herbicidal rate of 5% or less (almost no effect))
- N: redroot pigweed, herbicidal effect grade (redroot pigweed; [23]): 5 (Herbicidal rate of 90% or more (almost completely withered))
- Herbicidal effect on D (Chinese sprangletop), foliage application (Chinese sprangletop; [23]): 5 (Herbicidal rate of 90% or more (almost completely withered))
- Herbicidal effect, A: late watergrass (late watergrass; [23]): 3 (Herbicidal rate of 40% or more and less than 70%)
- M: velvetleaf, herbicidal effect grade (velvetleaf [7]; [23]): 1 (Herbicidal rate of 5% or more and less than 20%)
- herbicidal effect on blackgrass (J) (blackgrass [8]; 320 g/ha): 4 (Herbicidal rate of 70% or more and less than 90%)
- herbicidal effect on barnyard grass (H) (barnyard grass [9]; 320 g/ha): 5 (Herbicidal rate of 90% or more (almost completely withered))
- herbicidal effect on green foxtail (G) (green foxtail [10]; 320 g/ha): 5 (Herbicidal rate of 90% or more (almost completely withered))
- herbicidal effect on wild oat (I) (wild oat [11]; 320 g/ha): 4 (Herbicidal rate of 70% or more and less than 90%)
- R: persian speedwell, herbicidal effect grade (persian speedwell [12]; [23]): 5 (Herbicidal rate of 90% or more (almost completely withered))
- J: blackgrass, herbicidal effect grade (blackgrass [13]; [23]): 0 (Herbicidal rate of 5% or less (almost no effect))
- O: lambsquarters, herbicidal effect grade (lambsquarters [14]; [23]): 4 (Herbicidal rate of 70% or more and less than 90%)
- herbicidal effect on lambsquarters (O) (lambsquarters [15]; 320 g/ha): 5 (Herbicidal rate of 90% or more (almost completely withered))
- herbicidal effect on persian speedwell (R) (persian speedwell [16]; 320 g/ha): 5 (Herbicidal rate of 90% or more (almost completely withered))
- herbicidal effect on Italian ryegrass (K) (Italian ryegrass [17]; 320 g/ha): 5 (Herbicidal rate of 90% or more (almost completely withered))
- P: chickweed, herbicidal effect grade (chickweed; [23]): 3 (Herbicidal rate of 40% or more and less than 70%)
- L: windgrass, herbicidal effect grade (windgrass [18]; [23]): 4 (Herbicidal rate of 70% or more and less than 90%)
- herbicidal effect on windgrass (L) (windgrass [19]; 320 g/ha): 4 (Herbicidal rate of 70% or more and less than 90%)
- Herbicidal effect on E (rice flat sedge), foliage application (rice flat sedge; [23]): 4 (Herbicidal rate of 70% or more and less than 90%)
- K: Italian ryegrass, herbicidal effect grade (Italian ryegrass [20]; [23]): 4 (Herbicidal rate of 70% or more and less than 90%)
- herbicidal effect on velvetleaf (M) (velvetleaf [21]; 320 g/ha): 5 (Herbicidal rate of 90% or more (almost completely withered))

Source: US20230085307A1, “PYRIDAZINONE COMPOUND AND HERBICIDE” (NISSAN CHEMICAL CORPORATION, priority 2019, published 2023)
